{"source": "patent US4087489A", "about": "“Insecticidal N-polychloroallylamido-thiophosphoric esters” (priority 1975, dated 1978)", "key": {"Musca domestica [1]": {"tested_on": "Musca domestica", "settings": "0.5 γ/insect; literature compounds (Agricultural and Food Chemistry 11, 1963, p.237); cited from earlier work"}, "Musca domestica [2]": {"tested_on": "Musca domestica", "assay": "Activity test on Musca domestica, topical application", "assay_type": "in vivo", "protocol": "Activity of \"Musca domestica\" by O-methyl-O-(2,4,5-trichlorophenyl)-phosphoroamidothioates with relationship to the weight of the alkyl group bound to the nitrogen atom (iso-C3 H7 = 1) in comparison with that of the compound of Example 1 of this invention (in a quantity of 0.5 γ/insect):\nAdult 4-day flies were treated by topical application by means of a micro-syringe of 1 cubic millimeters (mm^3) of an acetone solution at 0.5 γ/ .mm^3 according to Example 1. […] (The death-rate of the flies treated with 1 .mm^3 of acetone under the same conditions was equal to 0)."}, "Macrosiphum Euphorbiae": {"tested_on": "Macrosiphum Euphorbiae", "assay": "Activity test on Macrosiphum euphorbiae (aphides) on potato plants", "assay_type": "in vivo", "source_text": "Small potato plants, grown in pots, were infested with adult aphide females and, after a few hours, subjected to besprinkling with an aqueous dispersion of the product of Example 1, at a concentration of 0.1%. The percentual death-rate turned out to be 100% (on small untreated plants = 0).\n(§1) In order to show how the compounds of the invention have different activities depending on the species at varying concentrations, the death-rate percentages on various infesting kinds of compounds of the invention at varying concentrations of active principle have been recorded in Table II."}, "Culex pipiens": {"tested_on": "Culex pipiens", "assay": "Activity test on Culex pipiens larvae in aqueous dispersion", "assay_type": "in vivo", "source_text": "Into glasses containing an aqueous dispersion of the product of Example 1 and at a concentration of 0.005 parts per million, p.p.m.: there were introduced larvae of third and fourth age.\nas §1"}, "[3]": {"tested_on": "Leptinotarsa decemlineata", "assay": "Activity test on Leptinotarsa decemlineata larvae on potato plants", "assay_type": "in vivo", "settings": "for mortality at 1 %: read-out: % mort. Leptinot. Decemlin.", "source_text": "Potato plants grown in pots were infested with 4-day old larvae and subjected to besprinkling with an aqueous 0.1% dispersion of the product of Example 1.\nas §1"}, "[4]": {"assay": "Acute oral toxicity (DL 50) in the albino mouse", "settings": "in vivo"}, "Tetran. Urt. adults": {"tested_on": "Tetran. Urt. adults", "assay": "Activity on Tetran. Urt. adults (Table II)", "assay_type": "in vivo", "source_text": "as §1"}, "Spodopt. Littoralis": {"tested_on": "Spodopt. Littoralis", "assay": "Activity on Spodopt. Littoralis (Table II)", "assay_type": "in vivo", "settings": "1 % a.p.", "source_text": "as §1"}, "Tetran Urt. eggs": {"tested_on": "Tetran Urt. eggs", "assay": "Activity on Tetran Urt. eggs (Table II)", "assay_type": "in vivo", "source_text": "as §1"}, "Pieris Brassicae": {"tested_on": "Pieris Brassicae", "assay": "Activity on Pieris Brassicae (Table II)", "assay_type": "in vivo", "settings": "read-out: % mort. Pieris Brassicae", "source_text": "as §1"}, "albino mouse": {"tested_on": "albino mouse", "settings": "oral, comparison value; cited from earlier work"}}, "note": "Like-named read-outs stand apart in the source and are kept apart here."}
{"smiles": "COP(=S)(NC(C)C)Oc1ccc(Cl)cc1Cl", "note": "(stereo not drawn)", "values": [{"measurement": "Percentual death-rate on Musca domestica", "setting": "Musca domestica [1]", "value": 100, "unit": "%"}]}
{"smiles": "COP(=S)(NC(C)C)Oc1cc(Cl)c(Cl)cc1Cl", "note": "(stereo not drawn)", "values": [{"measurement": "Percentual death-rate on Musca domestica", "setting": "Musca domestica [1]", "value": 100, "unit": "%"}]}
{"smiles": "COP(=S)(NCC(C)C)Oc1cc(Cl)c(Cl)cc1Cl", "note": "(stereo not drawn)", "values": [{"measurement": "Percentual death-rate on Musca domestica", "setting": "Musca domestica [1]", "value": 92, "unit": "%"}]}
{"smiles": "COP(=S)(NC(C)(C)C)Oc1cc(Cl)c(Cl)cc1Cl", "note": "(stereo not drawn)", "values": [{"measurement": "Percentual death-rate on Musca domestica", "setting": "Musca domestica [1]", "value": 13, "unit": "%"}]}
{"smiles": "CCOP(=S)(NCC=C(Cl)Cl)Oc1cc(Cl)c(Cl)cc1Cl", "note": "(stereo not drawn) [Example 1, O-ethyl-O-(2,4,5-trichlorophenyl)-N-(3,3-dichloro-allyl)amido-thiophosphate]", "values": [{"measurement": "Percentual death-rate on Musca domestica", "setting": "Musca domestica [2]; 0.5 γ/insect, Table I", "value": 100, "unit": "%"}, {"measurement": "death-rate", "setting": "Musca domestica [2]; adult 4-day flies, topical 1 mm^3 acetone solution at 0.5 γ/mm^3, after 24 hours", "value": 100, "unit": "%"}, {"measurement": "mortality at 0.1 %", "setting": "Macrosiphum Euphorbiae; read-out: percentual death-rate", "value": 100, "unit": "%"}, {"measurement": "mortality at 0.005 ppm", "setting": "Culex pipiens; larvae of third and fourth age, 0.005 p.p.m., after 24 hours, read-out: death-rate", "value": 100, "unit": "%"}, {"measurement": "mortality at 0.1 %", "setting": "[3]; 4-day old larvae on potato plants, aqueous 0.1% dispersion, after 48 hrs, read-out: percentual death-rate of the larvae", "value": 100, "unit": "%"}, {"measurement": "LD50", "setting": "[4]", "value": "> 100", "unit": "mg/kg"}]}
{"smiles": "CSc1ccc(OP(=S)(NCC=C(Cl)Cl)OC(C)C)cc1C", "note": "(stereo not drawn) [Example M7468]", "values": [{"measurement": "mortality at 0.02 µg/mL", "setting": "Culex pipiens; 0,02 ppm a.p., read-out: % mort. Oulex Pipens", "value": 30, "unit": "%"}, {"measurement": "mortality at 1 %", "setting": "[3]; 1 % a.p.", "value": 30, "unit": "%"}, {"measurement": "% mort. Tetran. Urt. adults", "setting": "Tetran. Urt. adults; 0,1 % a.p.", "value": 0, "unit": "%"}, {"measurement": "% mort. Spodopt. Littoralis", "setting": "Spodopt. Littoralis", "value": 0, "unit": "%"}]}
{"smiles": "COP(=S)(Oc1ccc(SC)c(C)c1)N(C)CC=C(Cl)Cl", "note": "(stereo not drawn) [Example M7469]", "values": [{"measurement": "mortality at 1 %", "setting": "[3]", "value": 20, "unit": "%"}, {"measurement": "% mort. Tetran Urt. eggs", "setting": "Tetran Urt. eggs; 0,1 % a.p.", "value": 24, "unit": "%"}, {"measurement": "% mort. Tetran Urt. eggs", "setting": "Tetran Urt. eggs; 1 % a.p.", "value": 100, "unit": "%"}, {"measurement": "% mort. Spodopt. Littoralis", "setting": "Spodopt. Littoralis", "value": 15, "unit": "%"}]}
{"smiles": "CCOP(=S)(NCC=C(Cl)Cl)Oc1ccc([N+](=O)[O-])c(C)c1", "note": "(stereo not drawn) [M 6986]", "values": [{"measurement": "mortality at 1 %", "setting": "Macrosiphum Euphorbiae; 1 % a.p., read-out: % mort. Macrosiphum Euphorbiae", "value": 100, "unit": "%"}, {"measurement": "mortality at 0.2 µg/mL", "setting": "Culex pipiens; 0,2 ppm a.p., read-out: % mort. Oulex Pipens", "value": 100, "unit": "%"}, {"measurement": "mortality at 2 µg/mL", "setting": "Culex pipiens; read-out: % mort. Oulex Pipens", "value": 100, "unit": "%"}, {"measurement": "mortality at 1 %", "setting": "[3]; 1 % a.p.", "value": 40, "unit": "%"}, {"measurement": "mortality at 1 %", "setting": "Pieris Brassicae; 1 % a.p.", "value": 100, "unit": "%"}, {"measurement": "% mort. Tetran. Urt. adults", "setting": "Tetran. Urt. adults; 1 % a.p.", "value": 26, "unit": "%"}, {"measurement": "% mort. Tetran Urt. eggs", "setting": "Tetran Urt. eggs; 1 % a.p.", "value": 12, "unit": "%"}, {"measurement": "% mort. Spodopt. Littoralis", "setting": "Spodopt. Littoralis", "value": 5, "unit": "%"}]}
{"smiles": "CC(C)OP(=S)(NCC=C(Cl)Cl)Oc1cc(Cl)c(Cl)cc1Cl", "note": "(stereo not drawn) [M 7147]", "values": [{"measurement": "mortality at 1 %", "setting": "[3]", "value": 75, "unit": "%"}, {"measurement": "mortality at 1 %", "setting": "Pieris Brassicae", "value": 20, "unit": "%"}, {"measurement": "% mort. Tetran. Urt. adults", "setting": "Tetran. Urt. adults; 1 % a.p.", "value": 47, "unit": "%"}]}
{"smiles": "COP(=S)(NCC=C(Cl)Cl)Oc1cc(Cl)c(Cl)cc1Cl", "note": "(stereo not drawn) [M 7160]", "values": [{"measurement": "mortality at 1 %", "setting": "[3]; 1 % a.p.", "value": 40, "unit": "%"}, {"measurement": "% mort. Spodopt. Littoralis", "setting": "Spodopt. Littoralis", "value": 55, "unit": "%"}]}
{"smiles": "COP(=S)(NCC=C(Cl)Cl)Oc1ccc([N+](=O)[O-])c(C)c1", "note": "(stereo not drawn) [M 7415]", "values": [{"measurement": "mortality at 1 %", "setting": "[3]; 1 % a.p.", "value": 70, "unit": "%"}]}
{"smiles": "COP(=S)(NCC=C(Cl)Cl)Oc1ccc(SC)c(C)c1", "note": "(stereo not drawn) [M 7466]", "values": [{"measurement": "% mort. Spodopt. Littoralis", "setting": "Spodopt. Littoralis", "value": 0, "unit": "%"}]}
{"smiles": "CCOP(=S)(NCC=C(Cl)Cl)Oc1ccc(SC)c(C)c1", "note": "(stereo not drawn) [M 7467]", "values": [{"measurement": "mortality at 1 %", "setting": "[3]; 1 % a.p.", "value": 55, "unit": "%"}, {"measurement": "% mort. Spodopt. Littoralis", "setting": "Spodopt. Littoralis", "value": 30, "unit": "%"}]}
{"smiles": "CCOP(=S)(Oc1ccc(SC)c(C)c1)N(C)CC=C(Cl)Cl", "note": "(stereo not drawn) [M 7470]", "values": [{"measurement": "% mort. Tetran. Urt. adults", "setting": "Tetran. Urt. adults; 0,01 % a.p.", "value": 4, "unit": "%"}, {"measurement": "% mort. Spodopt. Littoralis", "setting": "Spodopt. Littoralis", "value": 25, "unit": "%"}]}
{"smiles": "CSc1ccc(OP(=S)(OC(C)C)N(C)CC=C(Cl)Cl)cc1C", "note": "(stereo not drawn) [M 7471]", "values": [{"measurement": "mortality at 1 %", "setting": "[3]; 1 % a.p.", "value": 65, "unit": "%"}, {"measurement": "mortality at 0.1 %", "setting": "Pieris Brassicae; 0,1 % a.p.", "value": 0, "unit": "%"}, {"measurement": "% mort. Tetran. Urt. adults", "setting": "Tetran. Urt. adults; 1 % a.p.", "value": 57, "unit": "%"}, {"measurement": "% mort. Spodopt. Littoralis", "setting": "Spodopt. Littoralis", "value": 0, "unit": "%"}]}
{"smiles": "CCOP(=S)(OCC)Oc1ccc([N+](=O)[O-])cc1", "note": "[Parathion, O,O-diethyl-O-p-nitrophenyl-phosphorthioate]", "values": [{"measurement": "D.L. 50", "setting": "albino mouse", "value": 14, "unit": "mg/kg"}]}
